Data on 4 compounds can be found in ChEMBL document CHEMBL3638507, “Heteroaromatic compounds as BTK inhibitors” (2015).

In the experiment the target is Tyrosine-protein kinase BTK (Homo sapiens, UniProt Q06187). Briefly: HTRF Assay: An HTRF assay (Cisbio KinEASE-TK cat #62TKOPEC) was performed to quantitate the ability of test compounds to inhibit BTK mediated phosphorylation of substrate. Assays were assembled in 384 well plates where 6 nM of full-length human His-tagged BTK (Life Technologies cat #PV3587) and test compound at varying concentrations were preincubated for 15 minutes at 28° C. Then, 1 uM of TK substrate-biotin and 30 uM ATP were added and incubated for an additional 30 minutes at 28° C. Phospohrylation was detected by adding 62.5 nM Streptavidin-XL665 and TK-Antibody Cryptate diluted 1:100 in HTRF detection buffer (Cisbio cat #62SDBRDF) and incubated for 60 minutes at RT. The plate was read on an Envision plate reader and the fluoresence is measured at 620 nm (cryptate) and 665 nm (XL665). A ratio is calculated (665/620) and converted to POC relative to control and blank wells.Assay Buffer:50 mM HEPES (Invitrogen #15630), 0.01% Brij-35 (sigma #B4184), 10 mM MgC12 (Sigma M1028), 1 mM EGTA.
Sequence of Tyrosine-protein kinase BTK (Q06187 whole entry): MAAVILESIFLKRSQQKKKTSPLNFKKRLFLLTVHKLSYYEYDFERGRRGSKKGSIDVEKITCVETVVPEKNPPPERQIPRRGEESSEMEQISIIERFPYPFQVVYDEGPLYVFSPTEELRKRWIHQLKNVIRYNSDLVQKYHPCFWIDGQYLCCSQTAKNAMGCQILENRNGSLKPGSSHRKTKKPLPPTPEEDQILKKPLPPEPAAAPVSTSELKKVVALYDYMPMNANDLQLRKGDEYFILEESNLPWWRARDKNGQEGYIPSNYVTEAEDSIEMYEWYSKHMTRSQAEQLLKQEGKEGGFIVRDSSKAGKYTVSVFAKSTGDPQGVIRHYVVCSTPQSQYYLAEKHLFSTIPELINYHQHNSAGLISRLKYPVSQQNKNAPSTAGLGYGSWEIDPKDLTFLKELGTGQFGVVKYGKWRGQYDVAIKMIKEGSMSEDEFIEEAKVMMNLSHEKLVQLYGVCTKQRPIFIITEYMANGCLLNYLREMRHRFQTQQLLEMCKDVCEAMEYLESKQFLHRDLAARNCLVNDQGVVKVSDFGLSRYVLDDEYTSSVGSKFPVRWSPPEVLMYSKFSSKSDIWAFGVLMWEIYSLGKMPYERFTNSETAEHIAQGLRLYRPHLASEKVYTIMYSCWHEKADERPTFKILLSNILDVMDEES
As for `CC#CC(=O)N1CC2(CC(n3nc(-c4ccc(Oc5ccccc5)cn4)c4c(N)ncnc43)C2)C1`, the IC50 is 1 nM.
As for `C/C=C/C(=O)N1CC2(CC(n3nc(-c4ccc(Oc5ccccc5)cn4)c4c(N)ncnc43)C2)C1`, the concentration for half-maximal inhibition (IC50) was 65 nM.
As for `CC#CC(=O)N1CC[C@]2(C1)C[C@H](n1nc(-c3ccc(Oc4ccccc4)cn3)c3c(N)ncnc31)C2`, the IC50 is 4 nM.
Turning to `C=CC(=O)N1CC2(CC(n3nc(-c4ccc(Oc5ccccc5)cn4)c4c(N)ncnc43)C2)C1`, the IC50 is 1.6 nM.
